The record followed here is patent US8809280B2, “Therapeutic peptides” (Lytix Biopharma AS, priority 2009, dated 2014).

Data set [1] concerns methicillin resistant Staphylococcus aureus (ATCC 33591). In words: microbe, parasite or virus in culture. In kind it is cell-based. Particulars: for MIC: read-out: MIC MTRSA. In outline:
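Di-TFA salts tested in duplicate at 200 down to 0.5 μg/ml against exponentially grown bacteria at 2×10^6 cfu/ml. Growth judged by well turbidity, with no-peptide and gentamicin controls.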

A short description of data set [2]: Phospholipid vesicle based barrier model permeability. In kind it is in vitro ADME. The text has this:
Encouraged by the theoretical calculations, the permeability of the β^2,2-amino acid derivatives was further investigated using a recently established phospholipid vesicle based barrier model (Flaten et al. Eur. J. Pharm. Sci. [2006] 27, 80-90).

The subject of data set [3] is methicillin resistant Staphylococcus epidermidis (ATCC 27626). The data set is described as follows: microbe, parasite or virus in culture. Type of data set: cell-based. Conditions: for MIC: read-out: MIC MRSE. Put shortly:
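Exponentially grown bacteria (2% peptone water) at 2×10^6 cfu/ml exposed in duplicate to di-TFA salts at 0.5–200 μg/ml. Growth or no growth judged by well turbidity; no-peptide and gentamicin controls included.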

In data set [4] the test system is Escherichia coli (ATTC 25922). The data set is described as follows: microbe, parasite or virus in culture. Type of data set: cell-based. Conditions: for MIC: read-out: MIC E. coli. In outline:
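Broth dilution in 2% Bacto Peptone water, inoculum 2×10^6 cfu/ml of exponential-phase bacteria; compounds (di-TFA salts) tested in duplicate at 200 down to 0.5 μg/ml. Growth judged by well turbidity, with no-peptide negative and gentamicin positive controls.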

In data set [5] the target is α-chymotrypsin (Bos taurus, UniProt P00766, DEL14-15/DEL147-148). The data set is described as follows: Stability against α-chymotrypsin. Particulars: over a period of 48 hours. Type of data set: in vitro ADME. The procedure:
The stability testing against α-chymotrypsin was conducted by dissolving the desired compounds to 1 mg/ml in water. α-Chymotrypsin was dissolved to 0.1 mg/ml in 1 mM HCl containing 2 mM CaCl2. The enzymatic digestion was performed in 100 mM TRIS HCl containing 10 mM CaCl2. Final enzyme concentration was 2 μg/ml, and final peptide concentration was 100 μg/ml. Total volume was 0.5 ml.
15 μl samples were collected at 0, 15, 30, 60, 120 and 240 min in addition to the 24 and 48 hours samples. To the samples it was added an external standard (atenolol hydrochloride) and 100 μl 10% acetic acid to terminate digestion before it was diluted to 1 ml with water.
For every test there were done a negative control without enzyme to ensure that degradation was due to enzyme activity and not other factors. Succinyl-ala-ala-pro-phe-para nitroanhiine was used as positive control. All test were run in triplicates.

Data set [6] has as its system human red blood cells. In words: cells. Type of data set: cell-based. In outline:
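Washed heparinized RBCs, diluted to 10% hematocrit then to 1% v/v final, incubated with compounds in PBS (1–1000 μg/mL) for 1 h at 37 °C with agitation. Hemoglobin release read at 405 nm against PBS (0%) and 0.1% Triton X-100 (100%); value reported is concentration giving 50% hemolysis.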

Data set [7] has as its system Staphylococcus aureus (ATTC 25923). In words: microbe, parasite or virus in culture. Type of data set: cell-based. Conditions: for MIC: read-out: MIC S. aureus. In outline: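 Di-TFA salts tested in duplicate at 0.5–200 μg/ml against exponential-phase bacteria at 2×10^6 cfu/ml grown in 2% peptone water. Growth judged by well turbidity, with no-peptide and gentamicin controls.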

The subject of data set [8] is Pseudomonas aeruginosa (ATCC 27853). In words: microbe, parasite or virus in culture. In kind it is cell-based. Particulars: for MIC: Pseudomonas aeruginosa, ATCC27853, Example 4, ATCC 27853, di-trifluoroacetate salts, highest concentration tested 200 μg/ml, read-out: MIC P. aeruginosa; for Therapeutic index P. aeruginosa: EC50 RBC divided by MIC. The procedure: Each compound was tested in duplicates at 200, 100, 50, 35, 15, 10, 5, 2.5, 1, 0.5 μg/ml. All tested compounds were di-trifluoroacetic acid salts.

[9] abbreviates: Staphylococcus aureus, ATCC33591, Example 4, ATCC 33591, di-trifluoroacetate salts, highest concentration tested 200 μg/ml.
The mark [10] stands for this setting: phospholipid vesicle based barrier model.
[11] abbreviates: Staphylococcus epidermidis, ATCC 27626 / MRSE, Example 4, ATCC 27626, di-trifluoroacetate salts, highest concentration tested 200 μg/ml.
The mark [12] stands for this setting: Escherichia coli, ATCC25922, Example 4, ATCC 25922, di-trifluoroacetate salts, highest concentration tested 200 μg/ml.
The mark [13] stands for this setting: Erythrocyte, Example 4, hemolytic activity, human red blood cells, highest concentration tested 1000 μg/ml, read-out: EC50 RBC.
Where [14] appears, read: Staphylococcus aureus, ATCC25923, Example 4, ATCC 25923, di-trifluoroacetate salts, highest concentration tested 200 μg/ml.

Each structure is given as a SMILES string. ≈ marks a conversion by molar mass, not a printed value. Read-outs that look alike come from different tables or passages of the source.

Consider `CN(C)CCN1CCN(C(=O)C(CN)(Cc2ccc3ccccc3c2)Cc2ccc3ccccc3c2)CC1` [Compound 4c], for which, in data set [1] (ATCC 33591), the “MBC MRSA” value was 7.2 µM (≈ 3.66 µg/mL), the “MIC MRSA” value stood at 7.2 µM (≈ 3.66 µg/mL), the “Therapeutic index MRSA” value is reported as 120 and the MIC was 3.4 µM (≈ 1.73 µg/mL). Also, the “permeability, model's classification of absorption” value (from here on “permeability … of absorption”) in data set [2] (not told) is on record as “moderately absorbed in humans”. In addition, in data set [3] (ATCC 27626), the “MBC MRSE” value is 7.2 µM (≈ 3.66 µg/mL) and the “Therapeutic index MRSE” value stood at 29. Also, in data set [4] (ATTC 25922), the “MBC E. coli” value worked out at 289 µM (≈ 147 µg/mL) and the “Therapeutic index E. coli” value amounted to 8.5. The “proteolytic stability against α-chymotrypsin” value (from here on “proteolytic stability”) in data set [5] was “no degradation could be detected”. Also, the “EC50 RBC” value in data set [6] (Example 1, 50% hemolysis of human red blood cells, highest concentration tested 1000 μg/ml) is “— (The notation “—”denotes no detectable activity (MIC or EC50) within the concentration range tested.)”. Further, the EC50 (commonly the midpoint of the concentration-response curve) in data set [6] (red cells of human) is 409 µM. Besides, in data set [7] (ATTC 25923), the “MBC S. aureus” value was 7.2 µM (≈ 3.66 µg/mL) and the “Therapeutic index S. aureus” value worked out at 20.

As to `N=C(N)NCCC[C@H](NC(=O)C(CN)(Cc1ccc2ccccc2c1)Cc1ccc2ccccc2c1)C(N)=O` [Compound 4g], in data set [1] (ATCC 33591), the “MBC MRSA” value was 5.3 µM (≈ 2.78 µg/mL) and the “MIC MRSA” value was determined as 5.0 µM (≈ 2.62 µg/mL). Besides, in data set [3] (ATCC 27626), the “MBC MRSE” value stood at 6.6 µM (≈ 3.46 µg/mL) and the MIC came out at 6.6 µM (≈ 3.46 µg/mL). In addition, in data set [4] (ATTC 25922), the “MBC E. coli” value is 266 µM (≈ 140 µg/mL) and the MIC turned out to be 266 µM (≈ 140 µg/mL). Moreover, in data set [5], the “proteolytic stability” value was “no degradation could be detected”. Moreover, in data set [6] (red cells of human), it took 470 µM to reach a half-maximal effect (EC50). For the same molecule, in data set [7] (ATTC 25923), the “MBC S. aureus” value is 6.6 µM (≈ 3.46 µg/mL) and the MIC is listed as 6.6 µM (≈ 3.46 µg/mL).

As for `COc1cc(CC(CN)(Cc2cc(OC)cc(OC)c2)C(=O)N[C@@H](CCCNC(=N)N)C(N)=O)cc(OC)c1` [Compound 4m], in data set [1] (ATCC 33591), the “MBC MRSA” value amounted to 259 µM (≈ 141 µg/mL) and the “MIC MRSA” value is 259 µM (≈ 141 µg/mL). Further, in data set [3] (ATCC 27626), the “MBC MRSE” value is 129 µM (≈ 70.3 µg/mL) and the MIC was 129 µM (≈ 70.3 µg/mL). In data set [4] (ATTC 25922), the “MBC E. coli” value is above 259 µM. For the same molecule, in data set [5], the “proteolytic stability” value is “no degradation could be detected”. In addition, in data set [7] (ATTC 25923), the “MBC S. aureus” value is above 259 µM and the MIC came out at 259 µM (≈ 141 µg/mL).

As for `CN1CCN(C(=O)C(CN)(Cc2ccc3ccccc3c2)Cc2ccc3ccccc3c2)CC1` [Entry 5c], in data set [1] (EC50 RBC divided by MIC), the “Therapeutic index MRSA” value is recorded as 41. The MIC in data set [1] (setting [9]) is 7.4 µM; in data set [3] (setting [11]), 15 µM; in data set [4] (setting [12]) it was 22 µM; in data set [8], above 200 µg/mL; in data set [7] (setting [14]), 15 µM. Further, the “experimental permeability values, rank” value in data set [2] (among 4c, 5c, 6c and 7c) is reported as “highest permeability”. Besides, in data set [2] (setting [10]), the “permeability … of absorption” value is reported as “moderately absorbed in humans”. Further, in data set [3] (EC50 RBC divided by MIC), the “Therapeutic index MRSE” value stood at 20. The “Therapeutic index E. coli” value in data set [4] (EC50 RBC divided by MIC) worked out at 14. In data set [6] (setting [13]), the EC50 amounted to 303 µM. For the same molecule, the “Therapeutic index S. aureus” value in data set [7] (EC50 RBC divided by MIC) was found to be 20.

As for `CN(C)CCNC(=O)C(CN)(Cc1ccc2ccccc2c1)Cc1ccc2ccccc2c1` [Entry 6c], in data set [1] (EC50 RBC divided by MIC), the “Therapeutic index MRSA” value stood at 16. The MIC in data set [1] (setting [9]) worked out at 7.5 µM; in data set [3] (setting [11]), 7.5 µM; in data set [4] (setting [12]), 23 µM; in data set [8] it was 300 µM; in data set [7] (setting [14]), 7.5 µM. In addition, the “permeability … of absorption” value in data set [2] (setting [10]) is recorded as “moderately absorbed in humans”. Moreover, the “Therapeutic index MRSE” value in data set [3] (EC50 RBC divided by MIC) worked out at 16. Further, in data set [4] (EC50 RBC divided by MIC), the “Therapeutic index E. coli” value is recorded as 5.1. In addition, in data set [8], the “Therapeutic index P. aeruginosa” value is 0.4. In addition, the half-maximal effective concentration (EC50) in data set [6] (setting [13]) was found to be 117 µM. Besides, in data set [7] (EC50 RBC divided by MIC), the “Therapeutic index S. aureus” value worked out at 16.

Turning to `NCCNC(=O)C(CN)(Cc1ccc2ccccc2c1)Cc1ccc2ccccc2c1` [Entry 7c], in data set [1] (EC50 RBC divided by MIC), the “Therapeutic index MRSA” value stood at 59. Also, the MIC is 7.8 µM in data set [1] (setting [9]); 3.9 µM in data set [3] (setting [11]); 24 µM in data set [4] (setting [12]); 55 µM in data set [8]; 3.9 µM in data set [7] (setting [14]). Besides, the “permeability … of absorption” value in data set [2] (setting [10]) was “moderately absorbed in humans”. For the same molecule, in data set [3] (EC50 RBC divided by MIC), the “Therapeutic index MRSE” value is reported as 117. In addition, the “Therapeutic index E. coli” value in data set [4] (EC50 RBC divided by MIC) is on record as 19. In data set [8], the “Therapeutic index P. aeruginosa” value is 8.3. In addition, the EC50 in data set [6] (setting [13]) was found to be 457 µM. For the same molecule, the “Therapeutic index S. aureus” value in data set [7] (EC50 RBC divided by MIC) is recorded as 117.
